Results taken from patent US10508111B2, “6-[5-amino-6-(2-ethoxyethoxy)-imidazo[4,5-B]pyridin-3-yl]-nicotinonitrile derivatives and their use as IRAK inhibitors” (GALAPAGOS NV, priority 2015, dated 2019).

How the values were obtained:
Type in all cases: cell-based, human
[1] = tested on: IL-1β triggered IL-6 release in SW1353 cells; experiment: SW1353 cellular selectivity assay, IL-1β trigger, IL-6 ELISA readout; details: IL-1β trigger 1 ng/mL; for IC50: Homo sapiens; for IL-1β trigger IL-6 PIN at 20 μM: percent inhibition at 20 μM compound
Excerpt: (§1) The aim of this assay is to evaluate the selectivity of compounds of the invention for the activated TLR/IRAK-4 pathway in an in vitro human cellular assay setting. SW1353 cells are from a chondrocytic cell line and are responsive to both the interleukin 1 (IL-1) and the TNFα cytokine triggers. Both cytokine triggers induce the expression of interleukin 6 (IL-6) and MMP13 by these cells. IL-6 and MMP13 releases are used as readouts in this assay and represent a measure for the level of inhibition of the TLR/IRAK-4 pathway by the tested compound.
(§2) SW1353 cells are cultured in DMEM supplemented with 10% FBS and 1% Penicillin/Streptomycin. Cells are incubated at 37° C. in a humidified atmosphere of 5% CO2 and subcultured twice a week. During subculturing, trypsin-EDTA is used to detach the cells, followed by a neutralization step with cell culture medium. After centrifugation (1,000 rpm during 5 min), the pellet is resuspended in cell culture medium and cells are counted using an automated cell counter (Invitrogen Countess™).
(§3) Cells are used at passage 16 and plated at a density of 15,000 cells per well in 120 μL cell culture medium in 96-well culture plates. Cells are allowed to attach during overnight incubation.
(§4) SW1353 cells are pre-incubated with test compound by addition of 15 μL of 10× concentrated compound solution for 2 h at 37° C. and 5% CO2. The compounds are tested at different concentrations and prepared by 3-fold serial dilutions from the 10 mM stock solution in DMSO followed by a 1/50 dilution step in cell culture medium. Final test concentrations in the assay start from 20 μM, with subsequent 3-fold serial dilutions with equal final DMSO concentrations of 0.2%. After the compound pre-incubation step, the SW1353 cells are triggered by addition of 15 μL of 10× concentrated IL-1f (Peprotech, 200-01B) or TNFα trigger (Peprotech, 300-01A) to the wells with final assay volume of 150 μL per well and final trigger concentration of 1 ng/mL and 10 ng/mL, respectively. Negative controls are adjusted with equal DMSO concentrations without trigger. The assay plates are then incubated in a humidified incubator at 37° C. and 5% CO2. Cell supernatants are harvested 24 h and 48 h later by transferring the cell medium into a V-bottom polypropylene 96-well plate and stored at −80° C. until ELISA readout.
(§5) The levels of secreted IL-6 in the cell supernatants are quantified in an enzyme-linked immunosorbent assay (ELISA). […] Luminescence of the converted substrate is measured with a Luminoskan™ Ascent luminometer.
(§6) All controls are measured within the linear range of the human IL-6 and MMP13 standard curve of the ELISA. […]

[2] = tested on: TNFα triggered IL-6 release in SW1353 cells; experiment: SW1353 cellular selectivity assay, TNFα trigger, IL-6 ELISA readout; details: TNFα trigger 10 ng/mL; for IC50: Homo sapiens; for TNFα trigger IL-6 PIN at 20 μM: percent inhibition at 20 μM compound
Excerpt: as §1, §2, §3, §4, §5, §6

[3] = tested on: TNFα triggered MMP13 release in SW1353 cells; experiment: SW1353 cellular selectivity assay, TNFα trigger, MMP13 readout; details: TNFα trigger 10 ng/mL; for IC50: Homo sapiens; for TNFα trigger MMP13 PIN at 20 μM: percent inhibition at 20 μM compound
Excerpt: as §1, §2, §3, §4
The levels of secreted MMP13 in the cell supernatants are quantified in an antibody capture activity assay. […] After incubation for 1 h at 37° C., fluorescence of the converted substrate is measured with a PerkinElmer EnVision® (excitation wavelength: 320 nm, emission wavelength: 405 nm).
as §6

| IC50 [1] [µM] | IC50 [2] [µM] | IC50 [3] [µM] | SMILES | IL-1β trigger IL-6 PIN at 20 μM [1] | TNFα trigger IL-6 PIN at 20 μM [2] | TNFα trigger MMP13 PIN at 20 μM [3] |
| --- | --- | --- | --- | --- | --- | --- |
| 0.054 | > 20 | > 20 | N#Cc1ccc(-n2cnc3cc(OCCOCCO)c(NC4CCOCC4)nc32)nc1 [Compound 1, 6-[6-[2-(2-hydroxy-ethoxy)-ethoxy]-5-(tetrahydro-pyran-4-ylamino)-imidazo[4,5-b]pyridin-3-yl]-nicotinonitrile] | [89%] | [54%] | [26%] |
| 0.04 | > 20 | > 20 | C[C@]1(O)CC[C@@H](Nc2nc3c(cc2OCCOCCO)ncn3-c2ccc(C#N)cn2)CC1 [Compound 12, 6-[6-[2-(2-hydroxyethoxy)ethoxy]-5-[((cis-1,4)-4-hydroxy-4-methylcyclohexyl)amino]imidazo[4,5-b]pyridin-3-yl]pyridine-3-carbonitrile] | [80%] | [22%] | [36%] |
